For this assay, the target named is IKZF2 (Helios) (Homo sapiens, UniProt Q96SW2+Q9UKS7). Nature of the assay: Prolabel quantification of IKZF2 protein levels in 293GT cells. The conditions noted are these: 24 h, read-out: IKZF2 % protein reduction at 10 μM, 24 h. It is filed as cell-based.
[1] abbreviates: Pro-label assay, 293GT cells, 10 μM.

Where two headings read alike, the source gives them in different places.

IKZF2 (Helios), sequence (Q9UKS7 whole entry): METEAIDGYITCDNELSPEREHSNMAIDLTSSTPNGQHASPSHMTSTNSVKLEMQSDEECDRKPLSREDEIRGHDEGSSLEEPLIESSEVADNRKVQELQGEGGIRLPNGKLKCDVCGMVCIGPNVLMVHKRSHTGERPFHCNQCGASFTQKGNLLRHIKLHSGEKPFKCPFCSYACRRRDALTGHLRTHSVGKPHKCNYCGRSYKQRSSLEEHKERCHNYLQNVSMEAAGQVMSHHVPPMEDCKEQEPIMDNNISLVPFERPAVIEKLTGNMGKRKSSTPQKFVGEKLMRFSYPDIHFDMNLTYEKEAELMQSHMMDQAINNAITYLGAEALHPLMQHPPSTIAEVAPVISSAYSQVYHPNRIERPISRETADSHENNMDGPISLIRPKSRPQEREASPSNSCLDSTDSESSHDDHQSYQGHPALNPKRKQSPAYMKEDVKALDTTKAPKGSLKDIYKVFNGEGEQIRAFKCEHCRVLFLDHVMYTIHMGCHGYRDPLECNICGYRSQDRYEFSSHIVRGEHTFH
IKZF2 (Helios), sequence (Q96SW2 whole entry): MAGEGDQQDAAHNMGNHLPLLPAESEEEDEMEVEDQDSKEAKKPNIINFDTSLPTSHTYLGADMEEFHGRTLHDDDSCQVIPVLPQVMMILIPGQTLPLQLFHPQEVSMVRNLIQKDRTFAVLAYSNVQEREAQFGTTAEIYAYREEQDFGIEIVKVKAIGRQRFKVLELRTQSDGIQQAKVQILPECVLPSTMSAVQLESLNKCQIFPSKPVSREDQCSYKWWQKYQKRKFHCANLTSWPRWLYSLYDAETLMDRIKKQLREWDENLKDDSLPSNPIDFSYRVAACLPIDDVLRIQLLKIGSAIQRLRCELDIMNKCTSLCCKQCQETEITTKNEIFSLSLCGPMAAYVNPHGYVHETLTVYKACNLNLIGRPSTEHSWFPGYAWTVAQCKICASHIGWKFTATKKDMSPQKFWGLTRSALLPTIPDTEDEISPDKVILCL
IKZF2 (Helios), sequence (Q16531 whole entry partner): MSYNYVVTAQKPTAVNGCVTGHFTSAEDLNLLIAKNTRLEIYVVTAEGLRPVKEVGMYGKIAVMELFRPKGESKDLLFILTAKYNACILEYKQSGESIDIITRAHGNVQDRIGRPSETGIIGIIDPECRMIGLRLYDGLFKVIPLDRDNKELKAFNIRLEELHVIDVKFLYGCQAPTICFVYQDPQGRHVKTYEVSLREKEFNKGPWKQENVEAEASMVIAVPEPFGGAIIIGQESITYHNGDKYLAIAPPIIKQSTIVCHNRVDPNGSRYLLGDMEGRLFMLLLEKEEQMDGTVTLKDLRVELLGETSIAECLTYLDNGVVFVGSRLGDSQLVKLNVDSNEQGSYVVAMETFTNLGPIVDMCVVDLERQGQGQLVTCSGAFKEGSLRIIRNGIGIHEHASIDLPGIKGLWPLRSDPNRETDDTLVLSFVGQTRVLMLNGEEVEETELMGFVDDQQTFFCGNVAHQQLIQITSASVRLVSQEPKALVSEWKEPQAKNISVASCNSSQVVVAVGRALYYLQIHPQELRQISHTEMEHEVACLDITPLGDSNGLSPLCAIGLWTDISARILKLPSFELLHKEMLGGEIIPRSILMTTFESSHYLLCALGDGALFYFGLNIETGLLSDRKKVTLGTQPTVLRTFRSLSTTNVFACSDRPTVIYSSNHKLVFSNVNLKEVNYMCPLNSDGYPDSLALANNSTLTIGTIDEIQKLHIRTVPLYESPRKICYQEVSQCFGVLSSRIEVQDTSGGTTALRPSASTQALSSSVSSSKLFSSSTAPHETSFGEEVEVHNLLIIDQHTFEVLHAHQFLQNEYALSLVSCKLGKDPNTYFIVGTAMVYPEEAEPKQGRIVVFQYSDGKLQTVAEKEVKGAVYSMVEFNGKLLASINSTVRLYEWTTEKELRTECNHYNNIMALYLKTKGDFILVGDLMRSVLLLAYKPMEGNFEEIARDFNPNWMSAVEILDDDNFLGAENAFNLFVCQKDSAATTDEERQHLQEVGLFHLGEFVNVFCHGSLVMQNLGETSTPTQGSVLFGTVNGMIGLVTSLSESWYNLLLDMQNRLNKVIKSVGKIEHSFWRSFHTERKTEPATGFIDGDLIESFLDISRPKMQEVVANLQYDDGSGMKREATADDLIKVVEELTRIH

In the case of `CCN(C[C@H]1C[C@@H](OC)C1)[C@H]1CCC[C@@H]1Oc1ccc2c(c1)CN(C1CCC(=O)NC1=O)C2=O` (stereo partly drawn) [I-180, 3-(5-(((1S,2S)-2-(ethyl(((1s,3R)-3-methoxycyclobutyl)methyl)amino)cyclopentyl)oxy)-1-oxoisoindolin-2-yl)piperidine-2,6-dione], the IKZF2 % protein reduction at 10 µM under setting [1] came out at 81%.

Take `O=C1CCC(N2Cc3cc(O[C@H]4CCC[C@@H]4N4CCCOCCC4)ccc3C2=O)C(=O)N1` (stereo partly drawn) [I-167, 3-(5-(((1S,2S)-2-(1,5-oxazocan-5-yl)cyclopentyl)oxy)-1-oxoisoindolin-2-yl)piperidine-2,6-dione]: under setting [1], the IKZF2 % protein reduction at 10 µM was determined as 75%.

As to `CC1(O)CN([C@H]2CCC[C@@H]2Oc2ccc3c(c2)CN(C2CCC(=O)NC2=O)C3=O)C1` (stereo partly drawn) [I-141, 3-(5-(((1S,2S)-2-(3-hydroxy-3-methylazetidin-1-yl)cyclopentyl)oxy)-1-oxoisoindolin-2-yl)piperidine-2,6-dione], the IKZF2 % protein reduction at 10 µM under setting [1] amounted to 77%. `O=C1CCC(N2Cc3cc(O[C@H]4CCC[C@@H]4N4C[C@@H]5[C@H](C4)[C@H]4CC[C@@H]5O4)ccc3C2=O)C(=O)N1` (stereo partly drawn) [I-188, 3-(5-(((1S,2S)-2-((3aR,4R,7S,7aS)-octahydro-2H-4,7-epoxyisoindol-2-yl)cyclopentyl)oxy)-1-oxoisoindolin-2-yl)piperidine-2,6-dione]: the IKZF2 % protein reduction at 10 µM worked out at 70%. For `O=C1CCC(N2Cc3cc(O[C@H]4CCCCC[C@@H]4NCC4CCOCC4)ccc3C2=O)C(=O)N1` (stereo partly drawn) [I-65, 3-(1-oxo-5-(((1S,2S)-2-(((tetrahydro-2H-pyran-4-yl)methyl)amino)cycloheptyl)oxy)isoindolin-2-yl)piperidine-2,6-dione], the IKZF2 % protein reduction at 10 µM under setting [1] stood at 76%. As for `COC1(CN[C@H]2CCCC[C@@H]2Oc2ccc3c(c2)CN(C2CCC(=O)NC2=O)C3=O)CCOCC1` (stereo partly drawn) [I-106, 3-(5-(((1S,2S)-2-(((4-methoxytetrahydro-2H-pyran-4-yl)methyl)amino)cyclohexyl)oxy)-1-oxoisoindolin-2-yl)piperidine-2,6-dione], the IKZF2 % protein reduction at 10 µM under setting [1] amounted to 51%. Take `CCN(CC)C1CC(C)(C)CC1Oc1ccc2c(c1)CN(C1CCC(=O)NC1=O)C2=O` (mixture of isomers) [I-172, Mixture of 3-(5-(((1S,2S)-2-(diethylamino)-4,4-dimethylcyclopentyl)oxy)-1-oxoisoindolin-2-yl)piperidine-2,6-dione and 3-(5-(((1R,2R)-2-(diethylamino)-4,4-dimethylcyclopentyl)oxy)-1-oxoisoindolin-2-yl)piperidine-2,6-dione]: under setting [1], the IKZF2 % protein reduction at 10 µM is 58%. Consider `COC1CCC(CN[C@H]2CCC[C@@H]2Oc2ccc3c(c2)CN(C2CCC(=O)NC2=O)C3=O)CC1` (stereo partly drawn) [I-161, 3-(5-(((1S,2S)-2-(((4-methoxycyclohexyl)methyl)amino)cyclopentyl)oxy)-1-oxoisoindolin-2-yl)piperidine-2,6-dione], for which the IKZF2 % protein reduction at 10 µM under setting [1] came to 80%. For the molecule `CCN(C)[C@H]1CCCC[C@@H]1Oc1ccc2c(c1)CN(C1CCC(=O)NC1=O)C2=O` (stereo partly drawn) [I-78, 3-(5-(((1S,2S)-2-(ethyl(methyl)amino)cyclohexyl)oxy)-1-oxoisoindolin-2-yl)piperidine-2,6-dione], under setting [1], the IKZF2 % protein reduction at 10 µM came to 50%. With `O=C1CCC(N2Cc3cc(O[C@H]4CCC[C@@H]4NCC4CC(F)(F)C4)ccc3C2=O)C(=O)N1` (stereo partly drawn) [I-194, 3-(5-(((1S,2S)-2-(((3,3-difluorocyclobutyl)methyl)amino)cyclopentyl)oxy)-1-oxoisoindolin-2-yl)piperidine-2,6-dione], the IKZF2 % protein reduction at 10 µM under setting [1] was 83%. Regarding `O=C1CCC(N2Cc3cc(O[C@H]4CCCC[C@@H]4NCc4ccccn4)ccc3C2=O)C(=O)N1` (stereo partly drawn) [I-85, 3-(1-oxo-5-(((1S,2S)-2-((pyridin-2-ylmethyl)amino)cyclohexyl)oxy)isoindolin-2-yl)piperidine-2,6-dione], the IKZF2 % protein reduction at 10 µM under setting [1] was 69%. Still for that read-out and setting: the same measure for `COC1CN([C@H]2CCCC[C@@H]2Oc2ccc3c(c2)CN(C2CCC(=O)NC2=O)C3=O)C1` (stereo partly drawn) [I-89, 3-(5-(((1S,2S)-2-(3-methoxyazetidin-1-yl)cyclohexyl)oxy)-1-oxoisoindolin-2-yl)piperidine-2,6-dione]: 82%; for `O=C1CCC(N2Cc3cc(O[C@H]4CCC[C@@H]4NCC4CCC(F)(F)CC4)ccc3C2=O)C(=O)N1` (stereo partly drawn) [I-173, 3-(5-(((1S,2S)-2-(((4,4-difluorocyclohexyl)methyl)amino)cyclopentyl)oxy)-1-oxoisoindolin-2-yl)piperidine-2,6-dione]: 84%; for `N[C@@H]1CCCC[C@@H]1Oc1ccc2c(c1)CN(C1CCC(=O)NC1=O)C2=O` (stereo partly drawn) [I-30, 3-(5-(((1S,2R)-2-aminocyclohexyl)oxy)-1-oxoisoindolin-2-yl)piperidine-2,6-dione]: 0%. As to `CC(C)n1cc(CN[C@H]2CCCC[C@@H]2Oc2ccc3c(c2)CN(C2CCC(=O)NC2=O)C3=O)cn1` (stereo partly drawn) [I-77, 3-(5-(((1S,2S)-2-(((1-isopropyl-1H-pyrazol-4-yl)methyl)amino)cyclohexyl)oxy)-1-oxoisoindolin-2-yl)piperidine-2,6-dione], the IKZF2 % protein reduction at 10 µM under setting [1] worked out at 86%. Take `O=C1CCC(N2Cc3cc(O[C@H]4CCC[C@@H]4N4CCCOCC4)ccc3C2=O)C(=O)N1` (stereo in doubt) [I-185, 3-(5-(((1S,2S)-2-(1,4-oxazepan-4-yl)cyclopentyl)oxy)-1-oxoisoindolin-2-yl)piperidine-2,6-dione]: the IKZF2 % protein reduction at 10 µM under setting [1] stood at 66%.

For the molecule `N#C[C@H]1CC[C@H](CN[C@H]2CCC[C@@H]2Oc2ccc3c(c2)CN(C2CCC(=O)NC2=O)C3=O)CC1` (stereo partly drawn) [I-160, (1S,4r)-4-((((1S,2S)-2-((2-(2,6-dioxopiperidin-3-yl)-1-oxoisoindolin-5-yl)oxy)cyclopentyl)amino)methyl)cyclohexane-1-carbonitrile], the IKZF2 % protein reduction at 10 µM was determined as 75%.

On to `Cc1cccc(CN[C@H]2CCCC[C@@H]2Oc2ccc3c(c2)CN(C2CCC(=O)NC2=O)C3=O)n1` (stereo partly drawn) [I-90, 3-(5-(((1S,2S)-2-(((6-methylpyridin-2-yl)methyl)amino)cyclohexyl)oxy)-1-oxoisoindolin-2-yl)piperidine-2,6-dione], for which the IKZF2 % protein reduction at 10 µM was found to be 57%. For `O=C1CCC(N2Cc3cc(O[C@H]4CCCC[C@@H]4N(Cc4ccccc4)Cc4ccccc4)ccc3C2=O)C(=O)N1` (stereo partly drawn) [I-34, 3-(5-(((1S,2S)-2-(dibenzylamino)cyclohexyl)oxy)-1-oxoisoindolin-2-yl)piperidine-2,6-dione], the IKZF2 % protein reduction at 10 µM under setting [1] is 0%. Regarding `CC(C)N[C@H]1CCCC[C@@H]1Oc1ccc2c(c1)CN(C1CCC(=O)NC1=O)C2=O` (stereo partly drawn) [I-131, 3-(5-(((1S,2S)-2-(isopropylamino)cyclohexyl)oxy)-1-oxoisoindolin-2-yl)piperidine-2,6-dione], the IKZF2 % protein reduction at 10 µM under setting [1] was 91%. On to `O=C1CCC(N2Cc3cc(O[C@H]4CCCC[C@@H]4N4CC(Oc5ccccc5Cl)C4)ccc3C2=O)C(=O)N1` (stereo partly drawn) [I-112, 3-(5-(((1S,2S)-2-(3-(2-chlorophenoxy)azetidin-1-yl)cyclohexyl)oxy)-1-oxoisoindolin-2-yl)piperidine-2,6-dione], for which the IKZF2 % protein reduction at 10 µM under setting [1] was 95%. On to `O=C1CCC(N2Cc3cc(O[C@@H]4CCC[C@H]4O)ccc3C2=O)C(=O)N1` (stereo partly drawn) [I-6, 3-(5-(((1R,2R)-2-hydroxycyclopentyl)oxy)-1-oxoisoindolin-2-yl)piperidine-2,6-dione], for which, under setting [1], the IKZF2 % protein reduction at 10 µM turned out to be 5%. In the case of `O=C1CCC(N2Cc3cc(O[C@H]4CCC[C@@H]4N4CCSCC4)ccc3C2=O)C(=O)N1` (stereo in doubt) [I-184, 3-(1-oxo-5-(((1S,2S)-2-thiomorpholinocyclopentyl)oxy)isoindolin-2-yl)piperidine-2,6-dione], the IKZF2 % protein reduction at 10 µM was 38%. On to `CCN(C)[C@H]1CCC[C@@H]1Oc1ccc2c(c1)CN(C1CCC(=O)NC1=O)C2=O` (stereo partly drawn) [I-143, 3-(5-(((1S,2S)-2-(ethyl(methyl)amino)cyclopentyl)oxy)-1-oxoisoindolin-2-yl)piperidine-2,6-dione], for which the IKZF2 % protein reduction at 10 µM under setting [1] was 81%.

As to `CCN(C)[C@H]1c2ccccc2C[C@@H]1Oc1ccc2c(c1)CN(C1CCC(=O)NC1=O)C2=O` (stereo partly drawn) [I-200, 3-(5-(((1S,2S)-1-(ethyl(methyl)amino)-2,3-dihydro-1H-inden-2-yl)oxy)-1-oxoisoindolin-2-yl)piperidine-2,6-dione], under setting [1], the IKZF2 % protein reduction at 10 µM stood at 71%. With `O=C1CCC(N2Cc3cc(OC4CCCCC4N4CCC(F)(F)C4)ccc3C2=O)C(=O)N1` (single isomer, unassigned) [I-134, 3-(5-((2-(3,3-difluoropyrrolidin-1-yl)cyclohexyl)oxy)-1-oxoisoindolin-2-yl)piperidine-2,6-dione], the IKZF2 % protein reduction at 10 µM under setting [1] turned out to be 56%. As for `CCn1cc(CN[C@H]2CCCC[C@@H]2Oc2ccc3c(c2)CN(C2CCC(=O)NC2=O)C3=O)cn1` (stereo partly drawn) [I-76, 3-(5-(((1S,2S)-2-(((1-ethyl-1H-pyrazol-4-yl)methyl)amino)cyclohexyl)oxy)-1-oxoisoindolin-2-yl)piperidine-2,6-dione], the IKZF2 % protein reduction at 10 µM was determined as 79%.

`N[C@H]1COC[C@@H]1Oc1ccc2c(c1)CN(C1CCC(=O)NC1=O)C2=O` (stereo partly drawn) [I-46, 3-(5-(((3R,4S)-4-aminotetrahydrofuran-3-yl)oxy)-1-oxoisoindolin-2-yl)piperidine-2,6-dione]: the IKZF2 % protein reduction at 10 µM under setting [1] was determined as 0%. For the molecule `CC1(C#N)CC(CN[C@H]2CCCC[C@@H]2Oc2ccc3c(c2)CN(C2CCC(=O)NC2=O)C3=O)C1` (single isomer, unassigned) [I-94], the IKZF2 % protein reduction at 10 µM under setting [1] was 84%. As to `O=C1CCC(N2Cc3cc(O[C@H]4CCCC[C@@H]4NCc4ccncc4)ccc3C2=O)C(=O)N1` (stereo partly drawn) [I-73, 3-(1-oxo-5-(((1S,2S)-2-((pyridin-4-ylmethyl)amino)cyclohexyl)oxy)isoindolin-2-yl)piperidine-2,6-dione], the IKZF2 % protein reduction at 10 µM under setting [1] worked out at 66%.

Take `O=C1CCC(N2Cc3cc(O[C@H]4CCCC[C@@H]4N4CC(Oc5cccc(F)c5)C4)ccc3C2=O)C(=O)N1` (stereo partly drawn) [I-121, 3-(5-(((1S,2S)-2-(3-(3-fluorophenoxy)azetidin-1-yl)cyclohexyl)oxy)-1-oxoisoindolin-2-yl)piperidine-2,6-dione]: the IKZF2 % protein reduction at 10 µM under setting [1] turned out to be 94%.

These data come from patent publication US11192877B2, “3-(5-hydroxy-1-oxoisoindolin-2-yl)piperidine-2,6-dione derivatives and uses thereof” (Novartis AG, priority 2018, dated 2021).
